# Test results published in US5593970A, “Heterocyclic anthracycline analogs” (priority 1994, dated 1997).
# Test system: DMS 273
# Assay: NCI sulforhodamine B assay
# Type: cell-based, human
smiles,measurement,setting,value
"COC(=O)C1CC2=C(C(=O)c3c(cc4ccccc4c3O)C2=O)C(O[C@H]2C[C@H](NC(=O)C(F)(F)F)[C@H](O)[C@H](C)O2)O1 (mixture of isomers) [BCH-242, (1'S,1R,3S) and (1'S, 1S,3R)-Methyl[11-hydroxy-1-2',3',6'-trideoxy-3-trifluroacetamido-L-lyxohexopyranose)-5,12-dioxo-3,4,5,12-tetrahydroanthraceno[2,3-c]pyran-3-yl]formate]",Log10 LC50,"DMS 273, 2880 min",-5.31 log molar
same,CC50,"Homo sapiens, DMS-273, 48 h, read-out: Log10 LC50, DMS 273 (converted)",9.77 µM
